What was measured:
[1] = biological target: Nucleolar and coiled-body phosphoprotein 1 (Homo sapiens) (UniProt Q14978)
[2] = biological target: Protein mono-ADP-ribosyltransferase PARP16 (Homo sapiens) (UniProt Q8N5Y8)
[3] = biological target: Protein VAC14 homolog (Homo sapiens) (UniProt Q08AM6)
[4] = biological target: B-cell receptor-associated protein 31 (Homo sapiens) (UniProt P51572)
Ataxin-10 (Homo sapiens) = Ataxin-10 (Homo sapiens) (UniProt Q9UBB4)
[5] = biological target: Prolyl 4-hydroxylase subunit alpha-1 (Homo sapiens) (UniProt P13674)
[6] = biological target: Insulin-like growth factor 2 mRNA-binding protein 1 (Homo sapiens) (UniProt Q9NZI8)
[7] = biological target: Ribosomal protein eS27-like (Homo sapiens) (UniProt Q71UM5)
[8] = biological target: Serine/threonine-protein kinase PAK 6 (Homo sapiens) (UniProt Q9NQU5)
[9] = biological target: Tyrosine-protein kinase Fer (Homo sapiens) (UniProt P16591)
[10] = biological target: Unconventional myosin-If (Homo sapiens) (UniProt O00160)
Homo sapiens [11] = species: Homo sapiens
[12] = biological target: Ras association domain-containing protein 5 (Homo sapiens) (UniProt Q8WWW0)
[13] = biological target: RNA-binding protein FXR1 (Homo sapiens) (UniProt P51114)
[14] = biological target: Serine/threonine-protein kinase ATR (Homo sapiens) (UniProt Q13535)
[15] = biological target: Proto-oncogene tyrosine-protein kinase Src (Homo sapiens) (UniProt P12931)
[16] = biological target: Cyclin-dependent kinase 4 (Homo sapiens) (UniProt P11802)
[17] = biological target: Cleavage and polyadenylation specificity factor subunit 6 (Homo sapiens) (UniProt Q16630)
[18] = biological target: Tyrosine-protein kinase FRK (Homo sapiens) (UniProt P42685)
[19] = biological target: U5 small nuclear ribonucleoprotein 200 kDa helicase (Homo sapiens) (UniProt O75643)
[20] = biological target: ATP-citrate synthase (Homo sapiens) (UniProt P53396)
[21] = biological target: Synaptophysin-like protein 1 (Homo sapiens) (UniProt Q16563)
[22] = biological target: Probable ATP-dependent RNA helicase DDX20 (Homo sapiens) (UniProt Q9UHI6)
[23] = biological target: Phosphatidylinositol 3,4,5-trisphosphate 5-phosphatase 2 (Homo sapiens) (UniProt O15357)
[24] = biological target: Synaptogyrin-2 (Homo sapiens) (UniProt O43760)
[25] = biological target: Phosphatidylinositol 4-kinase alpha (Homo sapiens) (UniProt P42356)
[26] = biological target: CDK5 and ABL1 enzyme substrate 1 (Homo sapiens) (UniProt Q8TDN4)
[27] = biological target: Tyrosine-protein kinase Lyn (Homo sapiens) (UniProt P07948)
[28] = biological target: Heme oxygenase 2 (Homo sapiens) (UniProt P30519)
[29] = biological target: Endoplasmic reticulum aminopeptidase 1 (Homo sapiens) (UniProt Q9NZ08)
[30] = biological target: Protein SDA1 homolog (Homo sapiens) (UniProt Q9NVU7)
[31] = biological target: ADP/ATP translocase 3 (Homo sapiens) (UniProt P12236)
[32] = biological target: Conserved oligomeric Golgi complex subunit 1 (Homo sapiens) (UniProt Q8WTW3)
[33] = biological target: Apoptosis-inducing factor 1, mitochondrial (Homo sapiens) (UniProt O95831)
[34] = biological target: Protein LYRIC (Homo sapiens) (UniProt Q86UE4)
[35] = biological target: 5'-3' exoribonuclease 2 (Homo sapiens) (UniProt Q9H0D6)
Homo sapiens [36] = species: Homo sapiens; remark: listed apart in the source
[37] = biological target: DDB1- and CUL4-associated factor 7 (Homo sapiens) (UniProt P61962)
[38] = biological target: Synaptosomal-associated protein 23 (Homo sapiens) (UniProt O00161)
[39] = biological target: TGF-beta receptor type-2 (Homo sapiens) (UniProt P37173)
Moesin (Homo sapiens) = Moesin (Homo sapiens) (UniProt P26038)
[40] = biological target: Dopamine beta-hydroxylase (Homo sapiens) (UniProt P09172)
[41] = biological target: Small ribosomal subunit protein eS12 (Homo sapiens) (UniProt P25398)
[42] = biological target: Transmembrane emp24 domain-containing protein 9 (Homo sapiens) (UniProt Q9BVK6)
[43] = biological target: Sister chromatid cohesion protein PDS5 homolog A (Homo sapiens) (UniProt Q29RF7)
[44] = biological target: Small ribosomal subunit protein eS27 (Homo sapiens) (UniProt P42677)
Homo sapiens [45] = species: Homo sapiens; remark: listed apart in the source
Note: assay method not described here.

Chain of Protein LYRIC (Homo sapiens) (Q86UE4 whole entry): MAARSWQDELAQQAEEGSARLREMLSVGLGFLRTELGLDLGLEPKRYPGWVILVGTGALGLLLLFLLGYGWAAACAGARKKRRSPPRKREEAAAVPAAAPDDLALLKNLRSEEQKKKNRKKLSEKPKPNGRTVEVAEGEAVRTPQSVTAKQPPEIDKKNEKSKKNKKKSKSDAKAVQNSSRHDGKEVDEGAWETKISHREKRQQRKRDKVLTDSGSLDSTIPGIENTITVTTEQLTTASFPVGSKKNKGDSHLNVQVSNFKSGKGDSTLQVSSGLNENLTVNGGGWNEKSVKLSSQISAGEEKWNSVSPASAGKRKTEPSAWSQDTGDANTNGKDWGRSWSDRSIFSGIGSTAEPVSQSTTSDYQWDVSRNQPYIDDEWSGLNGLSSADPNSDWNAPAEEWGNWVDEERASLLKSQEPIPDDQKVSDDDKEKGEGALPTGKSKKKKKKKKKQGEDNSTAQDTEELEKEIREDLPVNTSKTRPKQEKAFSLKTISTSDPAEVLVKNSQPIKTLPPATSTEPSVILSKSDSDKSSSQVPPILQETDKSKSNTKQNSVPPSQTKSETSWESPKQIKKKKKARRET
Chain of Tyrosine-protein kinase FRK (Homo sapiens) (P42685 whole entry): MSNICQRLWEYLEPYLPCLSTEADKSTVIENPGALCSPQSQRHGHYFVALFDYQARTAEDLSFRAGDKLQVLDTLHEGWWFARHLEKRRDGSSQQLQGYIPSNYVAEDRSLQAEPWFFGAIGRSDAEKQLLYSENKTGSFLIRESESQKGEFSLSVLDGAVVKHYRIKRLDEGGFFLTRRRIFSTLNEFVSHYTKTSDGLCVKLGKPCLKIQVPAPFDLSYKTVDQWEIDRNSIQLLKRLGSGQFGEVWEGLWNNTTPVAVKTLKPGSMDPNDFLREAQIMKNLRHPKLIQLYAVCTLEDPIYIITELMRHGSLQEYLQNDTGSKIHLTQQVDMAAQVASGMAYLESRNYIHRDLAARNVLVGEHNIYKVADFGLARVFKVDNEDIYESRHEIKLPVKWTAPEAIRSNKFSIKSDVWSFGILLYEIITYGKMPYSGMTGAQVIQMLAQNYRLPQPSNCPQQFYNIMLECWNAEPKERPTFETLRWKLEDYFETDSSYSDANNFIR
Chain of Protein mono-ADP-ribosyltransferase PARP16 (Homo sapiens) (Q8N5Y8 whole entry): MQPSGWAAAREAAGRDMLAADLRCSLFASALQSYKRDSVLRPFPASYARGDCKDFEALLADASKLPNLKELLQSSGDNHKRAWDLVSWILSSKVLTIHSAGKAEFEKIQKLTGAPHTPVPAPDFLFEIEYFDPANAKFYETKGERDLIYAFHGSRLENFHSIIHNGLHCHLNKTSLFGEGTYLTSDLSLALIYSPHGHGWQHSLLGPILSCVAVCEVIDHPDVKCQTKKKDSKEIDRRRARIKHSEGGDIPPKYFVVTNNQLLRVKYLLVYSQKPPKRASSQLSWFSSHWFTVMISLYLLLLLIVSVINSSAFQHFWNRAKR
Chain of Insulin-like growth factor 2 mRNA-binding protein 1 (Homo sapiens) (Q9NZI8 whole entry): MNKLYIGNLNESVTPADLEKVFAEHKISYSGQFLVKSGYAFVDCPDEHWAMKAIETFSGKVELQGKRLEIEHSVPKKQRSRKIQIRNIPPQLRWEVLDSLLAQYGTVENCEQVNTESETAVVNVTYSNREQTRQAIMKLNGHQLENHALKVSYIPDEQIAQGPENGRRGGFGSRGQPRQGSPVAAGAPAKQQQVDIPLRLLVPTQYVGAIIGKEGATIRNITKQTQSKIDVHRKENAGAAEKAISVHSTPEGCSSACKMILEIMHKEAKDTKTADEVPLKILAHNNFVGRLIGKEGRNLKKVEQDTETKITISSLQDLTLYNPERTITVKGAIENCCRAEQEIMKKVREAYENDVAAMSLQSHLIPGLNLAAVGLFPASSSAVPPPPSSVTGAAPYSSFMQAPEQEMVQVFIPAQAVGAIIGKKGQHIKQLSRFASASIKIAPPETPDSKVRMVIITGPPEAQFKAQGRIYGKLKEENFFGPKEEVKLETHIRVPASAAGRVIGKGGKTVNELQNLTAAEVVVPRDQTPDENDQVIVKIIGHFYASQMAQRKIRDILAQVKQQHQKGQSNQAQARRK
Chain of Unconventional myosin-If (Homo sapiens) (O00160 whole entry): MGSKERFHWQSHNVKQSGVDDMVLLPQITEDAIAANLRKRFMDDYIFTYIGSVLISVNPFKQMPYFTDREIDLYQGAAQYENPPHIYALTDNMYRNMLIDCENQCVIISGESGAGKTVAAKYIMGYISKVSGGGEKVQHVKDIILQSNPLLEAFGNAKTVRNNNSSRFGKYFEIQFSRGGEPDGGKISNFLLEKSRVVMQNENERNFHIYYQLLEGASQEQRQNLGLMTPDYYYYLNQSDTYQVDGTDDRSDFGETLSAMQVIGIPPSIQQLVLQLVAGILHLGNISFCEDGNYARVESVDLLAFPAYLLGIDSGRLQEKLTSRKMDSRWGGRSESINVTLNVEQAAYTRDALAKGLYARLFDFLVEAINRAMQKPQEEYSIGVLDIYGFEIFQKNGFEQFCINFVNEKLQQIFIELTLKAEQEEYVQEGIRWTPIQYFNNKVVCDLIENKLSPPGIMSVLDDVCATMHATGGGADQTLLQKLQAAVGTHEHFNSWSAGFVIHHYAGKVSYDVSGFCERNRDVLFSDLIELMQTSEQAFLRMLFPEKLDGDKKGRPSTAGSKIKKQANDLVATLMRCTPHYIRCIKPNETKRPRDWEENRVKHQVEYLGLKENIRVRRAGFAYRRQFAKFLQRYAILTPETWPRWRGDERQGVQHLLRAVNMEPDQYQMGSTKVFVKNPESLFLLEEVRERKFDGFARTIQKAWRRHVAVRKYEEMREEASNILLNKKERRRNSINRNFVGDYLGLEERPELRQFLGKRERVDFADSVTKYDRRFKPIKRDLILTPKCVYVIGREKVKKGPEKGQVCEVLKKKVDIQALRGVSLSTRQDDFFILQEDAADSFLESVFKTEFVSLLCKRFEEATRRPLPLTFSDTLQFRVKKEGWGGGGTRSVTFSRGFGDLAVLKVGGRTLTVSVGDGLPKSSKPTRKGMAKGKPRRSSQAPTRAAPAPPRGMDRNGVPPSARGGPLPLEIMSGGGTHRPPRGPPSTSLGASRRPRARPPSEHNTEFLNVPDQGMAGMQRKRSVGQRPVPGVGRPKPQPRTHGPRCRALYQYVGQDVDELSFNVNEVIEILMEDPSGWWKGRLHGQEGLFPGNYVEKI
Chain of Dopamine beta-hydroxylase (Homo sapiens) (P09172 whole entry): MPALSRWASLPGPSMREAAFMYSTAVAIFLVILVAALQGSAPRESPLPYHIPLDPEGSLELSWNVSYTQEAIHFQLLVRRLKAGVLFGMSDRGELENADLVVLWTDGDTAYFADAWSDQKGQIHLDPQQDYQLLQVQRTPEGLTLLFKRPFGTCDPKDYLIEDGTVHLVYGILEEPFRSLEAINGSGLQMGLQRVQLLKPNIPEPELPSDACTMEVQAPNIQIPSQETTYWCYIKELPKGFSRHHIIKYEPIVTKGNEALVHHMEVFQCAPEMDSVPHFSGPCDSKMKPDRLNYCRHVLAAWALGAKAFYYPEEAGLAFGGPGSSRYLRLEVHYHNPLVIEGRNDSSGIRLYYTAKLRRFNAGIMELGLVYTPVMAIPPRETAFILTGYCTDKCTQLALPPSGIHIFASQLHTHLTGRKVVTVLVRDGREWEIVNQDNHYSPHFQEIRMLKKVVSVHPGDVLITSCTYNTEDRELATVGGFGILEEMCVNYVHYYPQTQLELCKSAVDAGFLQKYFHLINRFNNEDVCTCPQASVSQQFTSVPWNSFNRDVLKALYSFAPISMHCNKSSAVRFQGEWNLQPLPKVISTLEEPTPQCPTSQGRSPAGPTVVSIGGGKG
Chain of Synaptosomal-associated protein 23 (Homo sapiens) (O00161 whole entry): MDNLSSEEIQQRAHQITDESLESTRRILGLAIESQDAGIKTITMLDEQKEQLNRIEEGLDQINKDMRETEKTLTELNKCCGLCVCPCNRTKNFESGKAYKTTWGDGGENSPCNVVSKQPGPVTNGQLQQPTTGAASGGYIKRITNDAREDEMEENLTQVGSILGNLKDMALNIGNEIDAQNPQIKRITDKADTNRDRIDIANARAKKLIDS
Chain of ATP-citrate synthase (Homo sapiens) (P53396 whole entry): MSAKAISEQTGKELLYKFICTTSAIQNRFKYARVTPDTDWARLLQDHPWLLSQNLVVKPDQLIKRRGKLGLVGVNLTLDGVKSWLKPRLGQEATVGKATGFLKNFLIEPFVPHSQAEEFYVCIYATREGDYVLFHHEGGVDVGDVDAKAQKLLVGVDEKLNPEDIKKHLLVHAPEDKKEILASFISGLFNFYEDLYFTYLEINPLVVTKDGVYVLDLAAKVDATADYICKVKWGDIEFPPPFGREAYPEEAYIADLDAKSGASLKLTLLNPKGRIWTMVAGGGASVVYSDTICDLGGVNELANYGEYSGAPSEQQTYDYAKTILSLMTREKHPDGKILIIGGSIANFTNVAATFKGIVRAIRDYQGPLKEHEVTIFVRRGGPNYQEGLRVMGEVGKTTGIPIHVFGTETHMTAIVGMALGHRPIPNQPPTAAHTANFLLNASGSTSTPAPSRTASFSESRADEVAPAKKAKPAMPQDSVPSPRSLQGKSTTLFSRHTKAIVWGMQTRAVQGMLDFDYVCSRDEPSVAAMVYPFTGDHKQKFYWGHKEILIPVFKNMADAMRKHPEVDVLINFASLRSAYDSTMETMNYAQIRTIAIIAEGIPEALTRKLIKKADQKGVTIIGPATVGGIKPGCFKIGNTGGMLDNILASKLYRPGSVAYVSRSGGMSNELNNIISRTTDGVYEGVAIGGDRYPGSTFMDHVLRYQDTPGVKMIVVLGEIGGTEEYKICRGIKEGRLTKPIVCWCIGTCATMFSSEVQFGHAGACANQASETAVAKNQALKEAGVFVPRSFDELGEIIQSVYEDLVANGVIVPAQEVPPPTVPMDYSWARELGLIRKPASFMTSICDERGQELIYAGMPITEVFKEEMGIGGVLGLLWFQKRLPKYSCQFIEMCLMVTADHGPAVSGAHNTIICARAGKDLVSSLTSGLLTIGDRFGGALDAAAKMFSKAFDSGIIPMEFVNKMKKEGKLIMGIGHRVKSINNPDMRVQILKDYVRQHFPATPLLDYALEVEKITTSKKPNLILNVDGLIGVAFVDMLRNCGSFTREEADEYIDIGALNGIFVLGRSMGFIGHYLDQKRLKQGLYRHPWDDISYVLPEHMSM

With `Cc1ccc(C(=O)Nc2cccc(C(F)(F)F)c2)cc1Nc1nc(-c2cccnc2)nc2c1cnn2C` the ED50 [1] was 0.0139 µM, the ED50 [2] was 0.0016 µM and the ED50 [3] was 0.648 µM. For the same compound, the ED50 [4] was 0.0691 µM, the ED50 (Ataxin-10 (Homo sapiens)) was 0.103 µM and the ED50 [5] was 0.511 µM. The ED50 [6] was 0.115 µM, the ED50 [7] was 6.46 µM and the ED50 [8] was 0.146 µM. The ED50 [9] was 0.0297 µM, the ED50 [10] was 4.43 µM and the ED50 (Homo sapiens [11]) was 8.11 µM. For the same compound, the ED50 [12] was 6.41 µM, the ED50 [13] was 0.00957 µM and the ED50 [14] was 4.47 µM. For the same compound, the ED50 [15] was 3.6 µM, the ED50 [16] was 0.000606 µM and the ED50 [17] was 15 µM. For the same compound, the ED50 [18] was 2.16 µM, the ED50 [19] was 6.15 µM and the ED50 [20] was 12.3 µM. For the same compound, the ED50 [21] was 6.43 µM, the ED50 [22] was 0.616 µM and the ED50 [23] was 0.364 µM. The ED50 [24] was 44.4 µM, the ED50 [25] was 18.6 µM and the ED50 [26] was 0.993 µM. It also gave an ED50 [27] of 1.34 µM, an ED50 [28] of 4.08 µM and an ED50 [29] of 6.22 µM. It also gave an ED50 [30] of 0.065 µM, an ED50 [31] of 2.19 µM and an ED50 [32] of 0.0039 µM. For the same compound, the ED50 [33] was 0.00539 µM, the ED50 [34] was 4.51 µM and the ED50 [35] was 0.547 µM. It also gave an ED50 (Homo sapiens [36]) of 11.6 µM, an ED50 [37] of 1.12 µM and an ED50 [38] of 11.2 µM. It also gave an ED50 [39] of 35.5 µM, an ED50 (Moesin (Homo sapiens)) of 10.7 µM and an ED50 [40] of 2.26 µM. The ED50 [41] was 0.171 µM, the ED50 [42] was 67.9 µM and the ED50 [43] was 0.978 µM. It also gave an ED50 [44] of 7.65 µM and an ED50 (Homo sapiens [45]) of 0.878 µM.

In the case of `Cc1ccc(C(=O)Nc2cccc(C(F)(F)F)c2)cc1Nc1nc(-c2cccnc2)nc2nn(C)cc12`, the ED50 [1] was 0.178 µM, the ED50 [2] was 22200 µM and the ED50 [3] was 3.84 µM. For the same compound, the ED50 [4] was 1.7 µM, the ED50 (Ataxin-10 (Homo sapiens)) was 1470 µM and the ED50 [5] was 0.000132 µM. It also gave an ED50 [6] of 0.0177 µM, an ED50 [7] of 0.00432 µM and an ED50 [8] of 0.526 µM. It also gave an ED50 [9] of 0.0189 µM, an ED50 [10] of 0.105 µM and an ED50 (Homo sapiens [11]) of 13.1 µM. For the same compound, the ED50 [12] was 4.74 µM, the ED50 [13] was 0.00197 µM and the ED50 [14] was 0.0106 µM. For the same compound, the ED50 [15] was 3.43 µM, the ED50 [16] was 10.1 µM and the ED50 [17] was 0.349 µM. It also gave an ED50 [18] of 8.67 µM, an ED50 [19] of 0.539 µM and an ED50 [20] of 21.4 µM. It also gave an ED50 [21] of 0.0536 µM, an ED50 [22] of 0.0285 µM and an ED50 [23] of 1.01 µM. For the same compound, the ED50 [24] was 1.91 µM, the ED50 [25] was 50.1 µM and the ED50 [26] was 0.175 µM. It also gave an ED50 [27] of 60.5 µM, an ED50 [28] of 0.02 µM and an ED50 [29] of 8.49 µM. For the same compound, the ED50 [30] was 0.000949 µM, the ED50 [31] was 0.122 µM and the ED50 [32] was 69.8 µM. The ED50 [33] was 0.182 µM, the ED50 [34] was 6.82 µM and the ED50 [35] was 0.0114 µM. The ED50 (Homo sapiens [36]) was 1.33 µM, the ED50 [37] was 0.184 µM and the ED50 [38] was 0.416 µM. The ED50 [39] was 0.00886 µM, the ED50 (Moesin (Homo sapiens)) was 0.256 µM and the ED50 [40] was 3.14 µM. For the same compound, the ED50 [41] was 0.254 µM, the ED50 [42] was 0.00396 µM and the ED50 [43] was 2.82 µM. It also gave an ED50 [44] of 0.47 µM and an ED50 (Homo sapiens [45]) of 0.217 µM.
